Laboratory results: ChEMBL document CHEMBL4373717, “Coumarin-containing hybrids and their anticancer activities” (Eur J Med Chem, 2019)
Values after ≈ are worked out from the molar mass of the structure shown. One block for each compound: values may come before it.

What was measured:
[1] = system: NCI-H157; assay: Cytotoxicity against human NCI-H157 cells assessed as reduction in cell viability after 48 hrs by SRB assay; format: functional, cell-based; conditions: NCI-H157, 48 h
[2] = system: BHK-21; assay: Cytotoxicity against BHK21 cells assessed as reduction in cell viability after 48 hrs by SRB assay; format: cell-based; conditions: Mesocricetus auratus, BHK-21, 48 h
[3] = system: HeLa; assay: Anticancer activity against human HeLa cells by MTT assay; format: functional, cell-based
[4] = system: A549; assay: Anticancer activity against human A549 cells by MTT assay; format: functional, cell-based
[5] = system: K562; assay: Anticancer activity against human K562 cells by MTT assay; format: functional, cell-based
[6] = system: MDA-MB-231; assay: Anticancer activity against human MDA-MB-231 cells by MTT assay; format: functional, cell-based
[7] = system: HepG2; assay: Cytotoxicity against human HepG2 cells assessed as reduction in cell viability; format: functional, cell-based
[8] = system: DLD-1; assay: Cytotoxicity against human DLD1 cells assessed as reduction in cell viability; format: functional, cell-based
[9] = system: HeLa; assay: Antiproliferative activity against human HeLa cells by MTT assay; format: functional, cell-based
[10] = system: DU-145; assay: Cytotoxicity against human DU145 cells assessed as reduction in cell viability by SRB assay; format: functional, cell-based
[11] = system: HeLa; assay: Cytotoxicity against human HeLa cells assessed as reduction in cell viability by SRB assay; format: functional, cell-based
[12] = system: A549; assay: Cytotoxicity against human A549 cells assessed as reduction in cell viability by SRB assay; format: functional, cell-based
[13] = system: SK-OV-3; assay: Cytotoxicity against human SKOV3 cells assessed as reduction in cell viability by SRB assay; format: functional, cell-based
[14] = system: MCF7; assay: Cytotoxicity against human MCF7 cells assessed as reduction in cell viability by SRB assay; format: functional, cell-based
[15] = system: HepG2; assay: Cytotoxicity against human HepG2 cells assessed as reduction in cell viability by SRB assay; format: functional, cell-based
[16] = Cytotoxicity against human MCF7/DX cells assessed as reduction in cell viability by SRB assay; format: functional, cell-based
[17] = system: MCF7; assay: Cytotoxicity against human MCF7 cells assessed as reduction in cell viability after 48 hrs by MTT assay; format: functional, cell-based; conditions: MCF7, 48 h
[18] = system: MCF7; assay: Cytotoxicity against human MCF7 cells assessed as reduction in cell viability by MTT assay; format: functional, cell-based; conditions: Homo sapiens, MCF7

Compound: COc1ccc(C2=Nn3c(nnc3-c3cc4ccccc4oc3=O)SC2)cc1
IC50 [1]: 1.01 to 5.72 µM
IC50 [2]: 1.01 to 5.72 µM

IC50 [3]: 0.16 to 1.12 µg/mL (≈ 0.306 to 2.14 µM)
IC50 [4]: 0.16 to 1.12 µg/mL (≈ 0.306 to 2.14 µM)
IC50 [5]: 0.16 to 1.12 µg/mL (≈ 0.306 to 2.14 µM)
IC50 [6]: 0.16 to 1.12 µg/mL (≈ 0.306 to 2.14 µM)
Compound: COc1ccc(-n2nc(C)n(-n3c(-c4cc5ccccc5oc4=O)cs/c3=N\c3ccccc3)c2=O)cc1

Compound: CNc1ncc(C(=O)c2cc3ccccc3oc2=O)s1
IC50 [7]: 5.66 to 100 µg/mL (≈ 19.8 to 349 µM)
IC50 [8]: 5.66 to 100 µg/mL (≈ 19.8 to 349 µM)

IC50 [9]: 0.0091 to 0.569 µM
Compound: COC(=O)c1sc(N/N=C(\C)c2cc3ccccc3oc2=O)nc1C

Compound: CO/N=C1\C(=O)N(CCOCCOc2ccc3c(C)cc(=O)oc3c2)c2ccc(F)cc21
IC50 [10]: 10.3 to 50 µM
IC50 [11]: 10.3 to 50 µM
IC50 [12]: 10.3 to 50 µM
IC50 [13]: 10.3 to 50 µM
IC50 [14]: 10.3 to 50 µM
IC50 [15]: 10.3 to 50 µM
IC50 [16]: 10.3 to 50 µM

IC50 [3]: 0.16 to 1.12 µg/mL (≈ 0.315 to 2.21 µM)
IC50 [4]: 0.16 to 1.12 µg/mL (≈ 0.315 to 2.21 µM)
IC50 [5]: 0.16 to 1.12 µg/mL (≈ 0.315 to 2.21 µM)
IC50 [6]: 0.16 to 1.12 µg/mL (≈ 0.315 to 2.21 µM)
Compound: Cc1ccc(-n2nc(C)n(-n3c(-c4cc5ccccc5oc4=O)cs/c3=N\c3ccccc3)c2=O)cc1

Compound: Cc1cc(=O)oc2cc(OCCOCCN3C(=O)/C(=N\O)c4ccccc43)ccc12
IC50 [10]: 10.3 to 50 µM
IC50 [11]: 10.3 to 50 µM
IC50 [12]: 10.3 to 50 µM
IC50 [13]: 10.3 to 50 µM
IC50 [14]: 10.3 to 50 µM
IC50 [15]: 10.3 to 50 µM
IC50 [16]: 10.3 to 50 µM

Compound: CO/N=C1\C(=O)N(CCOCCOc2ccc3c(C)cc(=O)oc3c2)c2ccc(Cl)cc21
IC50 [10]: 10.3 to 50 µM
IC50 [11]: 10.3 to 50 µM
IC50 [12]: 10.3 to 50 µM
IC50 [13]: 10.3 to 50 µM
IC50 [14]: 10.3 to 50 µM
IC50 [15]: 10.3 to 50 µM
IC50 [16]: 10.3 to 50 µM

IC50 [3]: 0.16 to 1.12 µg/mL (≈ 0.28 to 1.96 µM)
IC50 [4]: 0.16 to 1.12 µg/mL (≈ 0.28 to 1.96 µM)
IC50 [5]: 0.16 to 1.12 µg/mL (≈ 0.28 to 1.96 µM)
IC50 [6]: 0.16 to 1.12 µg/mL (≈ 0.28 to 1.96 µM)
Compound: Cc1nn(-c2ccc(Br)cc2)c(=O)n1-n1c(-c2cc3ccccc3oc2=O)cs/c1=N\c1ccccc1

Compound: O=c1oc2ccccc2cc1-c1nnc2n1N=C(c1ccc(Br)cc1)CS2
IC50 [1]: 1.01 to 5.72 µM
IC50 [2]: 1.01 to 5.72 µM

Compound: C/C(=N\Nc1ncc(C(=O)c2cc3ccccc3oc2=O)s1)c1ccc(C)cc1
EC50 [7]: 3.7 to 9.54 µg/mL (≈ 9.17 to 23.6 µM)
EC50 [8]: 3.7 to 9.54 µg/mL (≈ 9.17 to 23.6 µM)

Compound: Cc1cc(=O)oc2cc(OCCOCCN3C(=O)C(=O)c4cc(F)ccc43)ccc12
IC50 [10]: 10.3 to 50 µM
IC50 [11]: 10.3 to 50 µM
IC50 [12]: 10.3 to 50 µM
IC50 [13]: 10.3 to 50 µM
IC50 [14]: 10.3 to 50 µM
IC50 [15]: 10.3 to 50 µM
IC50 [16]: 10.3 to 50 µM

Compound: C/C(=N\Nc1ncc(C(=O)c2cc3ccccc3oc2=O)s1)c1ccccc1
EC50 [7]: 3.7 to 9.54 µg/mL (≈ 9.5 to 24.5 µM)
EC50 [8]: 3.7 to 9.54 µg/mL (≈ 9.5 to 24.5 µM)

Compound: Cc1cc(-c2cc3cc(Br)ccc3oc2=O)n(-c2nc(-c3ccc(Br)cc3)cs2)n1
IC50 [17]: 4.03 to 31.5 µM

Compound: Cc1cc(=O)oc2cc(/N=N/c3ccccc3)c(O)c(/N=N/c3ccccc3)c12
IC50 [18]: 1.87 µg/mL (≈ 4.86 µM)

Compound: C=CCNc1ncc(C(=O)c2cc3ccccc3oc2=O)s1
IC50 [7]: 5.66 to 100 µg/mL (≈ 18.1 to 320 µM)
IC50 [8]: 5.66 to 100 µg/mL (≈ 18.1 to 320 µM)

Compound: COc1ccc(-c2csc(-n3nc(C)cc3-c3cc4cc(Br)ccc4oc3=O)n2)cc1
IC50 [17]: 4.03 to 31.5 µM

Compound: CC(=O)c1ccc(C2=Nn3c(nnc3-c3cc4ccccc4oc3=O)SC2)cc1
IC50 [1]: 1.01 to 5.72 µM
IC50 [2]: 1.01 to 5.72 µM

Compound: CO/N=C1\C(=O)N(CCOCCOc2ccc3c(C)cc(=O)oc3c2)c2ccccc21
IC50 [10]: 10.3 to 50 µM
IC50 [11]: 10.3 to 50 µM
IC50 [12]: 10.3 to 50 µM
IC50 [13]: 10.3 to 50 µM
IC50 [14]: 10.3 to 50 µM
IC50 [15]: 10.3 to 50 µM
IC50 [16]: 10.3 to 50 µM

Compound: CO/N=C1\C(=O)N(CCOCCOc2ccc3c(C)cc(=O)oc3c2)c2ccc(C)cc21
IC50 [10]: 10.3 to 50 µM
IC50 [11]: 10.3 to 50 µM
IC50 [12]: 10.3 to 50 µM
IC50 [13]: 10.3 to 50 µM
IC50 [14]: 10.3 to 50 µM
IC50 [15]: 10.3 to 50 µM
IC50 [16]: 10.3 to 50 µM

IC50 [3]: 0.16 to 1.12 µg/mL (≈ 0.264 to 1.85 µM)
IC50 [4]: 0.16 to 1.12 µg/mL (≈ 0.264 to 1.85 µM)
IC50 [5]: 0.16 to 1.12 µg/mL (≈ 0.264 to 1.85 µM)
IC50 [6]: 0.16 to 1.12 µg/mL (≈ 0.264 to 1.85 µM)
Compound: Cc1nn(-c2ccc(Br)cc2)c(=O)n1-n1c(-c2cc3ccccc3oc2=O)cs/c1=N\c1ccc(Cl)cc1

Compound: Cc1ccc2c(c1)/C(=N/O)C(=O)N2CCOCCOc1ccc2c(C)cc(=O)oc2c1
IC50 [10]: 10.3 to 50 µM
IC50 [11]: 10.3 to 50 µM
IC50 [12]: 10.3 to 50 µM
IC50 [13]: 10.3 to 50 µM
IC50 [14]: 10.3 to 50 µM
IC50 [15]: 10.3 to 50 µM
IC50 [16]: 10.3 to 50 µM

Compound: Cc1cc(=O)oc2cc(OCCOCCN3C(=O)C(=O)c4cc(Cl)ccc43)ccc12
IC50 [10]: 10.3 to 50 µM
IC50 [11]: 10.3 to 50 µM
IC50 [12]: 10.3 to 50 µM
IC50 [13]: 10.3 to 50 µM
IC50 [14]: 10.3 to 50 µM
IC50 [15]: 10.3 to 50 µM
IC50 [16]: 10.3 to 50 µM

Compound: O=C(c1cnc(Nc2ccccc2)s1)c1cc2ccccc2oc1=O
IC50 [7]: 5.66 to 100 µg/mL (≈ 16.2 to 287 µM)
IC50 [8]: 5.66 to 100 µg/mL (≈ 16.2 to 287 µM)

Compound: Cc1cc(-c2cc3cc(Cl)ccc3oc2=O)n(-c2nc(-c3ccc(Br)cc3)cs2)n1
IC50 [17]: 4.03 to 31.5 µM

IC50 [3]: 0.16 to 1.12 µg/mL (≈ 0.295 to 2.07 µM)
IC50 [4]: 0.16 to 1.12 µg/mL (≈ 0.295 to 2.07 µM)
IC50 [5]: 0.16 to 1.12 µg/mL (≈ 0.295 to 2.07 µM)
IC50 [6]: 0.16 to 1.12 µg/mL (≈ 0.295 to 2.07 µM)
Compound: Cc1ccc(-n2nc(C)n(-n3c(-c4cc5ccccc5oc4=O)cs/c3=N\c3ccc(Cl)cc3)c2=O)cc1

Compound: COc1cc([C@@H]2c3cc4c(cc3[C@@H](O[C@@H]3O[C@@H]5CO[C@@H](C)O[C@H]5[C@H](O)[C@H]3O)[C@H]3COC(=O)[C@H]23)OCO4)cc(OC)c1O [ETOPOSIDE]
IC50 [11]: > 50 µM
IC50 [12]: > 50 µM
IC50 [16]: > 50 µM

Compound: CC[C@]1(O)C[C@H]2CN(CCc3c([nH]c4ccccc34)[C@@](C(=O)OC)(c3cc4c(cc3OC)N(C=O)[C@H]3[C@@](O)(C(=O)OC)[C@H](OC(C)=O)[C@]5(CC)C=CCN6CC[C@]43[C@@H]65)C2)C1 [VINCRISTINE]
IC50 [1]: 1.03 µM
IC50 [2]: 1.08 µM
